{
  "source": "paper PMC12655351",
  "about": "“Synthesis and Anticancer Activity Evaluation of New 5-((5-Nitrofuran-2-yl)allylidene)-2-thioxo-4-thiazolidinones” (Pharmaceuticals, 2025)",
  "key": {"[1]": {"tested_on": "reactive oxygen species in MCF-7 cells", "experiment": "H2DCFDA and DAPI double staining", "type": "cell-based, human", "conditions": "MCF-7, 1 and 5 μM, one hour", "description": "(§1) The double staining method was applied to analyze novel compounds’ effects on the generation of reactive oxygen species. The first dye, H2DCFDA, after conversion to DCF, serves as an indicator of oxidative stress (green fluorescence), while the second one, known as DAPI, was applied to showcase nuclear genetic material of MCF-7 and MDA-MB-231 breast cancer cells (blue fluorescence). The concentrations of compounds were 1 and 5 μM for the MCF-7 cell line and 5 and 10 μM for the MDA-MB-231 cell line. The incubation time after treatment was one hour in both cell lines.\n(§2) The influences of 2b, 12b, 14b, and doxorubicin (1 and 5 µM and 5 and 10 µM for MCF-7 and MDA-MB-231 cell lines, respectively) on the generation of reactive oxygen species (ROS) were analyzed. Cells were seeded in 6-well culture plates at 1 × 10^5 cells per well in 1 mL of medium and then treated with compounds for 1 h and then washed with PBS. Double staining was conducted with 20 µM 2′,7′-dichlorodihydrofluorescein diacetate (H2DCFDA) reagent (Thermo Fisher Scientific, Eugene, OR, USA), which is colorless, and is cleaved by intracellular esterases and oxidized to the highly fluorescent 2′,7′-dichlorofluorescein (DCF), and 10 µg/mL of the fluorescent dye 4′,6-diamidino-2-phenylindole (DAPI) (Sigma-Aldrich, St. Louis, MO, USA), which visualizes the nuclear DNA of cells. A Nikon ECLIPSE Ti fluorescence microscope (Nikon, Tokyo, Japan) was used to obtain results which were analyzed using ImageJ software 1.54k (Bethesda, MD, USA). The fluorescence intensity of the DCF reagent was evaluated relative to the control. The number of analyzed cells was above 100."}, "[2]": {"tested_on": "reactive oxygen species in MDA-MB-231 cells", "experiment": "H2DCFDA and DAPI double staining", "type": "cell-based, human", "conditions": "MDA-MB-231, 5 and 10 μM, one hour", "description": "as §1, §2"}},
  "data": [
    {"compound": "O=C(O)CCCCCN1C(=O)/C(=C/C=C/c2ccc([N+](=O)[O-])o2)SC1=S", "note": "[14b, 6-((Z)-5-((E)-3-(5-nitrofuran-2-yl)allylidene)-4-oxo-2-thioxothiazolidin-3-yl)hexanoic acid]", "values": [
      {"measurement": "generation of reactive oxygen species", "setting": "[1]", "result": "highest generation of ROS"},
      {"measurement": "generation of reactive oxygen species", "setting": "[2]", "result": "highest generation of ROS"}
    ]}
  ]
}
